Columns and labels:
[1] = stated without test; cited from earlier work
[2] = system: SNU-1 gastric cancer cell line; assay: SNU-1 cell proliferation, Countess automatic cell count; assay type: cell-based; conditions: 72 h
Method: In order to extend our findings of the role of INB03 in increasing lapatinib inhibitory effect on HER2+ breast cancer cell proliferation to other tumor types, we used both drugs in the ovarian cancer SK-OV-3 cells and in the gastric SNU-1 cells. Both cell lines express HER2 and MUC4.
FIG. 22(A-B) INB03 enhances lapatinib inhibition in cell proliferation of ovarian and gastric cancer cell. Cell proliferation was evaluated in the SK-OV-3 ovarian cancer cell line (FIG. 22A) and in the SNU-1 gastric cancer cell line. Cells were treated with vehicle (DMSO 0.1%), lapatinib (Lap), or NB03 (10 μg/ml), alone or in different combinations for 72 h. (FIG. 22A) SK-OV-3 cells viability was analyzed by CellTiter Glo 2.0 assay. (FIG. 22B) SNU-1 cell proliferation was evaluated by cell count Countess automatic cell count.
(§1) FIG. 25(A-C) INB03 enhances sorafenib inhibition in cell proliferation of colon, gastric and triple-negative breast cancer cells. Cell proliferation was evaluated in the HT-29 colon cancer (FIG. 25A), SNU-1 gastric cancer (FIG. 25B) and in the in the HCC-70 triple-negative breast cancer cell lines (FIG. 25C). Cells were treated with vehicle (DMSO 0.1%), sorafenib (Soraf), or INB03 (10 μg/ml), alone or in different combinations for 72 h. (FIGS. 25A and B) HT-29 and SNU-1 cell proliferation was evaluated by cell count Countess automatic cell count. (FIG. 25C) HCC70 cell viability was analyzed by CellTiter Glo 2.0 assay.

JIMT-1-shMUC4 cells [3] = assay: JIMT-1-shMUC4 migration with lapatinib and TNF-blocking agents; assay type: cell-based
Method: (§2) Again, lapatinib is used in the metastatic setting (infra). The metastatic cascade is a multistep process that involves migration and invasion of tumor cells that pass through the basement membrane and extracellular matrix, the intravasation to the lymphatic or vascular circulation, the extravasation and the attachment of a new location to generate a secondary tumor. The migration ability of JIMT-1 treated with lapatinib and TNF-blocking agents was evaluated. […] To study MUC4 contribution on the inhibition of migration observed by simultaneous treatment of TNF-blocking drugs and lapatinib, the JIMT-1 cell line was transduced with a plasmid encoding a doxycycline-inducible shRNA targeting MUC4, and JIMT-1-shMUC4 cells were obtained (FIGS. 16 B and C).

HER2+ breast cancer = conditions: patients with trastuzumab-resistant disease; cited from earlier work
[4] = system: SK-OV-3 ovarian cancer cell line; assay: SK-OV-3 cell viability, CellTiter Glo 2.0; assay type: cell-based; conditions: lapatinib 2.5 μM alone, 72 h
Method: Cells were treated with vehicle (DMSO 0.1%), lapatinib (Lap), or NB03 (10 μg/ml), alone or in different combinations for 72 h. (FIG. 22A) SK-OV-3 cells viability was analyzed by CellTiter Glo 2.0 assay. […] Data was analyzed by one-way ANOVA coupled with a Tukey's post hoc test. The data as shown represents mean SEM. *p<0.05, **p<0.01.

JIMT-1-shMUC4 cells [5] = assay: JIMT-1-shMUC4 cell proliferation with lapatinib and TNFα blockade, cell count at 72 h; assay type: cell-based
Method: (§3) Then, to study the participation of MUC4 in lapatinib resistance, we transduced the trastuzumab-resistant JIMT-1 cell line with a plasmid encoding a doxycycline (Dox)-inducible shRNA targeting MUC4, and obtained JIMT-1-shMUC4 cells.
(§4) FIG. 18 TNFα blockade sensitizes lapatinib-resistant cells in vitro. Cell proliferation was evaluated in JIMT-1 and JIMT-1-shMUC4 cell lines by cell count at 72 h of treatment. Cells were treated with immunoglobulin G (IgG 5 μg/ml), lapatinib (Lap 1 μM), etanercept (E 5 μg/ml), or INB03 (DN; 10 μg/ml), alone or in different combinations. FIG. 18A. JIMT-1 wild type. FIGS. 18B and 18C JIMT-1-shMUC4 and in C cells were treated with Dox 10 μg/ml for 10 days before and during the experiment to assure MUC4 downregulation.

JIMT-1 = JIMT-1 migration with lapatinib and TNF-blocking agents; assay type: cell-based
Method: as §2

HT-29 colon cancer cells = assay: HT-29 cell proliferation, Countess automatic cell count; assay type: cell-based; conditions: 72 h
Method: as §1

[6] = system: HCC70 triple-negative breast cancer cell line; assay: HCC70 cell viability, CellTiter Glo 2.0; assay type: cell-based; conditions: 72 h
Method: as §1
FIG. 26 INB03 enhances cediranib inhibition in cell viability of HCC70 triple-negative breast cancer cells. Cell viability was evaluated in the HCC70 cell line. Cells were treated with vehicle (DMSO 0.1%), cediranib (cedir), or INB03 (10 μg/ml), alone or in different combinations for 72 h. Cell viability was analyzed by CellTiter Glo 2.0 assay.

JIMT-1 cell line [7] = assay: JIMT-1 cell proliferation, [3H]-thymidine incorporation; assay type: cell-based; conditions: 48 h treatment, 18 h pulse; T 10 μg/ml, P 10 μg/ml, E 5 μg/ml, DN 2 μg/ml; vs IgG
Method: A strategy of implementing a TNFα blockade was employed, either with Etanercept (E) or the dominant negative protein XPRO1595 (DN) in JIMT-1, de novo T and T+P resistant cell line which produces TNFα. JIMT-1 tumors were established in female nude mice to explore whether TNFα blockade overcomes T+P resistance. Animals were treated with 5 mg/kg of IgG, P, T+P, 10 mg/kg of DN or P+T+DN i.p. twice a week. […] Proliferation of cells treated with IgG, T, P, DN, E (10 μg/ml, 10 μg/ml, 10 μg/ml, 2 μg/ml and 5 μg/ml respectively) as monotherapy and in different combinations was evaluated by cell count or [3H]-thymidine incorporation. The combination of TNFα blockade with T+P inhibited cell proliferation vs. IgG, P+T, P+E, P+DN (p<0.0001).
Cell proliferation in JIMT-1 cell line was evaluated by ^3[H]-thymidine incorporation assay at 48 h of treatment with 18 h pulse (See Rivas M A, et al., Exp Cell Res 2008; 314:509-29, the contents of which are hereby incorporated by reference). […] The data as shown in FIG. 3 represents mean±standard deviation *p<0.05, **p<0.01, ***p<0.001 vs. IgG.

MDA-MB-468 cell line = assay: MDA-MB-468 cell viability, CellTiter Glo 2.0; assay type: cell-based; conditions: Homo sapiens, 72 h, read-out: decrease of MDA-MB-468 cell viability
Method: FIG. 24 INB03 enhances erlotinib inhibition in cell viability of MDA-MB 468 triple-negative breast cancer cells. Cell viability was evaluated in the MDA-MB-468 cell line. Cells were treated with vehicle (DMSO 0.1%), erlotinib (erlot), or INB03 (10 μg/ml), alone or in different combinations for 72 h.

JIMT-1 cell line [8] = assay: JIMT-1 cell proliferation with lapatinib and TNFα blockade, cell count at 72 h; assay type: cell-based; conditions: TNFα blocker simultaneously with lapatinib 1 μM, E 5 μg/ml, INB03 10 μg/ml
Method: as §3, §4

CS(=O)(=O)CCNCc1ccc(-c2ccc3ncnc(Nc4ccc(OCc5cccc(F)c5)c(Cl)c4)c3c2)o1 [lapatinib]
crossing of the blood-brain-barrier [1]: cross the blood-brain-barrier | effect on proliferation of SNU-1 cells ([2]; lapatinib 1 μM alone): no effect | cell migration (JIMT-1-shMUC4 cells [3]; JIMT-1-shMUC4 with doxycycline (MUC4 silenced), lapatinib): decrease in JIMT-1 cells migration | patients with clinical benefit (HER2+ breast cancer): < 30% | effect on viability of SK-OV-3 cells [4]: no effect | cell proliferation (JIMT-1-shMUC4 cells [5]; JIMT-1-shMUC4 with Dox 10 μg/ml (MUC4 silenced), lapatinib): decrease in JIMT-1 cells proliferation | JIMT-1 migration (JIMT-1; each drug alone): no effect

CNC(=O)c1cc(Oc2ccc(NC(=O)Nc3ccc(Cl)c(C(F)(F)F)c3)cc2)ccn1 [sorafenib]
effect on SNU-1 proliferation ([2]; sorafenib 1.5 μM alone): did not affect its proliferation | decrease of SNU-1 cell proliferation ([2]; sorafenib 3 μM alone): 38% | effect on HT-29 cell proliferation (HT-29 colon cancer cells; sorafenib 2.5 μM alone): no inhibitory effect | reduction of HT-29 proliferation (HT-29 colon cancer cells; sorafenib 10 μM alone): 62% | cytotoxicity at 1.5 µM ([6]; Homo sapiens, HCC70, sorafenib 1.5 μM alone, read-out: HCC70 viability reduction): 44% | effect on HCC70 viability ([6]; sorafenib 1 μM alone): no effect

pertuzumab: monoclonal antibody that disrupts HER2/HER3 dimerization
cell proliferation in JIMT-1 cell line (JIMT-1 cell line [7]): negligible, if any, impact

C#Cc1cccc(Nc2ncnc3cc(OCCOC)c(OCCOC)cc23)c1 [erlotinib]
cytotoxicity at 1.25 µM (MDA-MB-468 cell line; erlotinib 1.25 μM alone): 27% | cytotoxicity at 2.5 µM (MDA-MB-468 cell line; erlotinib 2.5 μM alone): 38% | cytotoxicity at 5 µM (MDA-MB-468 cell line; erlotinib 5 μM alone): 48%

COc1cc2c(Oc3ccc4[nH]c(C)cc4c3F)ncnc2cc1OCCCN1CCCC1 [cediranib]
cytotoxicity at 2.5 µM ([6]; Homo sapiens, HCC70, cediranib 2.5 μM alone, read-out: effect on HCC70 cell viability): 20% | cytotoxicity at 5 µM ([6]; Homo sapiens, HCC70, cediranib 5 μM alone, read-out: effect on HCC70 cell viability): 46%

etanercept
cell migration (JIMT-1-shMUC4 cells [3]; JIMT-1-shMUC4 with doxycycline, TNF blocker added to lapatinib): did not further induce a decrease in cell migration | cell migration (JIMT-1-shMUC4 cells [3]; JIMT-1shMUC4 without doxycycline, TNF blocker with lapatinib): decreased their migration | JIMT-1 cell proliferation (JIMT-1 cell line [8]): reduces JIMT-1 cell proliferation | cell proliferation (JIMT-1-shMUC4 cells [5]; JIMT-1-shMUC4 with Dox, TNFα blocker added to lapatinib): did not further induce a decrease in cell proliferation | JIMT-1 migration (JIMT-1; TNF blocker together with lapatinib): impairs JIMT-1 migration | JIMT-1 migration (JIMT-1; each drug alone): no effect
